Consider 23 compounds from publication PMC3866151, “Phenylthiophenecarboxamide Antagonists of the Olfactory Receptor Co-Receptor Subunit from a Mosquito” (PLoS ONE, 2013).

The target of test [1] is T1, Cqui\Orco+Cqui\Or21 (Culex quinquefasciatus, UniProt Q309I4). Kind of test: Antagonism of Orco agonist (OLC12) activation of the OR expressed in Xenopus oocytes, two-electrode voltage clamp. It counts as cell-based. The note with it: for Mechanism of inhibition of Orco agonist (OLC12) activation: OLC12 raised from 3 µM to 30 µM; for IC50: read-out: IC50 for inhibition of Cqui\Orco+Cqui\Or21 activation by OLC12; for Inhibition of the OLC12 response compared with OX1a (screen): 100 µM compound; for Inhibition of the OLC12 response compared with OX1a (screen) / Antagonist activity compared with the parent analog or OX1a (second screen): 3 µM OLC12; for Antagonist activity compared with the parent analog or OX1a (second screen): 30 µM compound. The protocol:
(§1) Oocytes were surgically removed from mature Xenopus laevis frogs. Follicle cells were removed by treatment with Collagenase B (Boehringer Mannhem) for 2 hours at room temperature. Capped cRNA encoding each OR subunit was generated using mMessage mMachine kits (Ambion). For heteromeric ORs, 25 ng of cRNA encoding each OR subunit was injected into Stage V-VI Xenopus oocytes. For expression of Orco alone, 50 ng of cRNA was injected. Oocytes were incubated at 18°C in Barth's saline (in mM: 88 NaCl, 1 KCl, 2.4 NaHCO3, 0.3 CaNO3, 0.41 CaCl2, 0.82 MgSO4, 15 HEPES, pH 7.6, and 150 µg/ml ceftazidime) for 2–5 days prior to electrophysiological recording.
(§2) Odorant and Orco ligand induced currents were recorded under two-electrode voltage clamp, using an automated parallel electrophysiology system (OpusExpress 6000A; Molecular Devices). Oocytes were perfused with ND96 (in mM: 96 NaCl, 2 KCl, 1 CaCl2, 1 MgCl2, 5 HEPES, pH 7.5). Orco ligands were prepared as 50 or 100 mM stock solutions in DMSO and then diluted into ND96 on the day of the experiment. Unless otherwise noted, applications were for 60 sec at a flow rate of 1.0 ml/min, with extensive washing in ND96 at 4.6 ml/min between applications. For the concentration-response protocol in Figure 1d , applications were for 20 sec at a flow rate of 1.65 ml/min. Micropipettes were filled with 3 M KCl and had resistances of 0.2–2.0 MΩ. The holding potential was -70 mV. Current responses, filtered (4-pole, Bessel, low pass) at 20 Hz (-3 db) and sampled at 100 Hz, were captured and stored using OpusXpress 1.1 software (Molecular Devices).
(§3) To screen for antagonist activity, oocytes were exposed to 60 sec applications of OLC12 with 4 min washes between applications (Figures 1B, 3, 4 and 5A,C,E) or 60 sec applications of odorant with 20 min washes between applications (Figures 1C,D and 5B,D,F). Oocytes were then exposed to a 90 sec application of antagonist candidate, immediately followed by a 60 sec co-application of antagonist candidate and OLC12 or odorant. Oocytes were then exposed to a final 60 sec application of OLC12 or odorant. The current response in the presence of antagonist candidate was compared to the preceding responses to OLC12 or odorant alone.
(§4) Initial analysis of electrophysiological data was done using Clampfit 9.1 software (Molecular Devices). Curve fitting and statistical analyses were done using Prism 5 (Graphpad). Concentration-response data were fit to the equation: I = Imax/(1+(EC50/X)^n) where I represents the current response at a given concentration of odorant, X; Imax is the maximal response; EC50 is the concentration of agonist yielding a half maximal response; n is the apparent Hill coefficient. Concentration-inhibition data were fit to the equation: I = Imax / (1+ (X/IC50)^n) where I represents the current response at a given concentration of inhibitor, X; Imax is the maximal response in the absence of inhibitor; IC50 is the concentration of inhibitor present that still allows a half maximal response from odorant; n is the apparent Hill coefficient. Statistical significance was assessed using a two-tailed unpaired t test, an F test, or a one-way analysis of variance followed by the Dunnett's post-test, as appropriate.
A general note: In two-electrode clamp one electrode senses voltage and the other passes current.

Test [2] has as its target T1, Cqui\Orco+Cqui\Or21. Kind of test: Inhibition of odorant (3-methylindole) activation of the OR expressed in Xenopus oocytes, two-electrode voltage clamp. Type of test: cell-based. The note with it: for IC50: read-out: IC50 for inhibition of responses to 3MI; for Mechanism of inhibition of odorant activation: 10 nM, 100 nM, 1 µM 3-methylindole. The protocol: as §1, §2, §3, §4

The mark [3] stands for this setting: activated by 3 µM OLC12, Xenopus oocytes.

T1 sequence (Q309I4 entry or part of it): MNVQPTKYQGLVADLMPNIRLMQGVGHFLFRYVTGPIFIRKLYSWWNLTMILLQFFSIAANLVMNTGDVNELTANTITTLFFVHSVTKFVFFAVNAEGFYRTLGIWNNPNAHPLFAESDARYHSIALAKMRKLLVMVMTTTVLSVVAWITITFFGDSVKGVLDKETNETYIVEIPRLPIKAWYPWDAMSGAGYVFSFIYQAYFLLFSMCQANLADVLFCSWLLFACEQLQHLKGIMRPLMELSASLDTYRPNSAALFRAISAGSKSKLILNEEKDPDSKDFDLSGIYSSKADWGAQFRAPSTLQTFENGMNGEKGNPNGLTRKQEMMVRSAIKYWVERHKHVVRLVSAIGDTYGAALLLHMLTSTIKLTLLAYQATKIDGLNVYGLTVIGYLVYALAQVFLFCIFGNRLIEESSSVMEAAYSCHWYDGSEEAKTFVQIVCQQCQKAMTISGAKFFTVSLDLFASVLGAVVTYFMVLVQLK

Consider `CCc1ccc(NC(=O)c2cccs2)cc1` [OX1a, N-(4-ethylphenyl)-2-thiophenecarboxamide], for which the “Mechanism of inhibition of Orco agonist (OLC12) activation” value (from here on “Mechanism of inhibition of Orco agonist”) at Cqui\Orco+Cqui\Or21 [1] was “competitive antagonist”. In addition, on Cqui\Orco+Cqui\Or21 [1] (setting [3]), the “nH (apparent Hill coefficient of concentration-inhibition curve)” value is listed as 1.0 ± 0.1. Further, the IC50 – broadly, the concentration at which inhibition is half-maximal – stood at 51 ± 6 µM at Cqui\Orco+Cqui\Or21 [1] (setting [3]), 47 ± 5 µM on Cqui\Orco+Cqui\Or21 [2] (10 nM 3MI), 42 ± 7 µM at Cqui\Orco+Cqui\Or21 [2] (100 nM 3MI) and 50 ± 4 µM at Cqui\Orco+Cqui\Or21 [2] (1 µM 3MI). For the same compound, the “Mechanism of inhibition of odorant activation” value on Cqui\Orco+Cqui\Or21 [2] is “non-competitive mechanism”. Moreover, the “Effect on maximal response to 3-methylindole” value at Cqui\Orco+Cqui\Or21 [2] (50 µM OX1a co-applied) is given as “significantly reduced”.
With `Cc1ccc(NC(=O)c2cccs2)cc1` [OX1b, N-(4-methylphenyl)-2-thiophenecarboxamide], the “Inhibition of the OLC12 response compared with OX1a (screen)” value (from here on “Inhibition … compared with OX1a (screen)”) on Cqui\Orco+Cqui\Or21 [1] is given as “significantly improved antagonist activity”.
As to `Cc1cccc(NC(=O)c2cccs2)c1` [OX1c, N-(3-methylphenyl)-2-thiophenecarboxamide], the “Inhibition … compared with OX1a (screen)” value on Cqui\Orco+Cqui\Or21 [1] is reported as “significantly improved antagonist activity”.
Consider `O=C(Nc1ccc(Br)cc1)c1cccs1` [OX1d, N-(4-bromophenyl)-2-thiophenecarboxamide], for which the “Inhibition … compared with OX1a (screen)” value at Cqui\Orco+Cqui\Or21 [1] is “failed to significantly improve antagonist activity”.
The same measure, in the same setting: the result for `COc1ccc(NC(=O)c2cccs2)cc1` [OX1e, N-(4-methoxyphenyl)-2-thiophenecarboxamide] reads “significantly improved antagonist activity”.
Still for that read-out and setting: the result for `O=C(Nc1cccc(Br)c1)c1cccs1` [OX1f, N-(3-bromophenyl)-2-thiophenecarboxamide] reads “significant improvement”.
Take `O=C(Nc1cccc(Cl)c1)c1cccs1` [OX1g, N-(3-cholorphenyl)-2-thiophenecarboxamide]: at Cqui\Orco+Cqui\Or21 [1], the “Inhibition … compared with OX1a (screen)” value is listed as “significant improvement”. For the same compound, on Cqui\Orco+Cqui\Or21 [1] (setting [3]), the “nH (apparent Hill coefficient of concentration-inhibition curve)” value is 1.0 ± 0.1 and the concentration for half-maximal inhibition (IC50) amounted to 13 ± 1 µM.
For `COc1cccc(NC(=O)c2cccs2)c1` [OX1h, N-(3-methoxyphenyl)-2-thiophenecarboxamide], the “Inhibition … compared with OX1a (screen)” value on Cqui\Orco+Cqui\Or21 [1] is on record as “significantly improved antagonist activity”.
On to `CC(=O)c1cccc(NC(=O)c2cccs2)c1` [OX1i, N-(3-acetylphenyl)-2-thiophenecarboxamide], for which, at Cqui\Orco+Cqui\Or21 [1], the “Inhibition … compared with OX1a (screen)” value is “significantly improved antagonist activity”. Besides, at Cqui\Orco+Cqui\Or21 [1] (setting [3]), the “nH (apparent Hill coefficient of concentration-inhibition curve)” value is recorded as 1.3 ± 0.1 and the IC50 turned out to be 14 ± 1 µM.
The like results for `CCc1ccccc1NC(=O)c1cccs1` [OX1j, N-(2-ethylphenyl)-2-thiophenecarboxamide] were, in that order, “significantly improved antagonist activity”, 0.9 ± 0.1 and 5.4 ± 0.4 µM.
In the case of `Cc1cccc(NC(=O)c2cccs2)c1C` [OX1k, N-(2,3-dimethylphenyl)-2-thiophenecarboxamide], the “Inhibition … compared with OX1a (screen)” value at Cqui\Orco+Cqui\Or21 [1] is given as “significantly improved antagonist activity”. At Cqui\Orco+Cqui\Or21 [1] (setting [3]), the “nH (apparent Hill coefficient of concentration-inhibition curve)” value is recorded as 0.8 ± 0.1 and the IC50 came out at 1.7 ± 0.2 µM.
Take `Cc1cc(C)c(NC(=O)c2cccs2)c(C)c1` [OX1l, N-mesityl-2-thiophenecarboxamide]: on Cqui\Orco+Cqui\Or21 [1], the “Inhibition … compared with OX1a (screen)” value is given as “significantly improved antagonist activity”. Further, the “Mechanism of inhibition of Orco agonist” value at Cqui\Orco+Cqui\Or21 [1] is given as “competitive mechanism”. In addition, the “nH (apparent Hill coefficient of concentration-inhibition curve)” value at Cqui\Orco+Cqui\Or21 [1] (setting [3]) is reported as 1.5 ± 0.1. Further, the IC50 amounted to 3.8 ± 0.3 µM on Cqui\Orco+Cqui\Or21 [1] (setting [3]); 8.3 ± 0.5 µM on Cqui\Orco+Cqui\Or21 [1] (activated by 10 µM OLC12); 24 ± 3 µM at Cqui\Orco+Cqui\Or21 [1] (activated by 30 µM OLC12); 17 ± 1 µM on Cqui\Orco+Cqui\Or21 [2] (10 nM 3MI); 16 ± 1 µM at Cqui\Orco+Cqui\Or21 [2] (100 nM 3MI); 19 ± 2 µM on Cqui\Orco+Cqui\Or21 [2] (1 µM 3MI). On Cqui\Orco+Cqui\Or21 [2], the “Mechanism of inhibition of odorant activation” value is on record as “non-competitive mechanism”.
Consider `Cc1cccc(NC(=O)c2sccc2Cl)c1` [OX1m, 3-chloro-N-(3-methylphenyl)-2-thiophenecarboxamide], for which the “Inhibition … compared with OX1a (screen)” value at Cqui\Orco+Cqui\Or21 [1] is reported as “improved antagonist activity”.
Still for that read-out and setting: the result for `CCN(C(=O)c1cccs1)c1ccccc1` [OX1n, N-ethyl-N-phenyl-2-thiophenecarboxamide] reads “improved antagonist activity”.
As for `Cc1ccc(NC(=O)c2sccc2Cl)c(C)c1` [OX1o, 3-chloro-N-(2,4-dimethylphenyl)-2-thiophenecarboxamide], the “Antagonist activity compared with the parent analog or OX1a (second screen)” value at Cqui\Orco+Cqui\Or21 [1] is “significant loss of antagonist activity”. On Cqui\Orco+Cqui\Or21 [1] (setting [3]), the “nH (apparent Hill coefficient of concentration-inhibition curve)” value stood at 1.1 ± 0.1 and the IC50 was found to be 5.5 ± 0.7 µM.
In the case of `Cc1cccc(C)c1NC(=O)c1sccc1Cl` [OX1p, 3-chloro-N-(2,6-dimethylphenyl)-2-thiophenecarboxamide], the “Antagonist activity compared with the parent analog or OX1a (second screen)” value at Cqui\Orco+Cqui\Or21 [1] is recorded as “significant loss of antagonist activity”. In addition, on Cqui\Orco+Cqui\Or21 [1] (setting [3]), the “nH (apparent Hill coefficient of concentration-inhibition curve)” value was 1.2 ± 0.1 and the IC50 worked out at 7.2 ± 0.6 µM.
The like results for `O=C(Nc1cccc(Cl)c1)c1sccc1Cl` [OX1q, 3-chloro-N-(3-chlorophenyl)-2-thiophenecarboxamide] were, in that order, “well tolerated”, 0.9 ± 0.1 and 7.8 ± 0.9 µM.
In the case of `CCC(=O)c1ccc(NC(=O)c2cccs2)cc1` [OX1r, N-(4-propionylphenyl)-2-thiophenecarboxamide], on Cqui\Orco+Cqui\Or21 [1], the “Antagonist activity compared with the parent analog or OX1a (second screen)” value is reported as “significant loss of antagonist activity”.
Still for that read-out and setting: the value for `CCCC(=O)c1ccc(NC(=O)c2cccs2)cc1` [OX1s, N-(4-butyrylphenyl)-2-thiophenecarboxamide] was “significant loss of antagonist activity”.
Turning to `O=C(NC1CCCCC1)c1cccs1` [OX2, N-cyclohexyl-2-thiophenecarboxamide], on Cqui\Orco+Cqui\Or21 [1], the “Inhibition … compared with OX1a (screen)” value is “failed to significantly improve antagonist activity”.
On to `Cc1ccc(CNC(=O)c2cccs2)cc1` [OX3a, N-(4-methylbenzyl)-2-thiophenecarboxamide], for which, on Cqui\Orco+Cqui\Or21 [1], the “Inhibition … compared with OX1a (screen)” value is “improved antagonist activity”. Further, at Cqui\Orco+Cqui\Or21 [1], the “Mechanism of inhibition of Orco agonist” value was “competitive mechanism”. In addition, the “nH (apparent Hill coefficient of concentration-inhibition curve)” value at Cqui\Orco+Cqui\Or21 [1] (setting [3]) was determined as 1.0 ± 0.1. Moreover, the IC50 on Cqui\Orco+Cqui\Or21 [1] (setting [3]) is 1.7 ± 0.2 µM; on Cqui\Orco+Cqui\Or21 [1] (activated by 10 µM OLC12), 12 ± 1 µM; at Cqui\Orco+Cqui\Or21 [1] (activated by 30 µM OLC12), 28 ± 2 µM; at Cqui\Orco+Cqui\Or21 [2] (10 nM 3MI) it was 2.6 ± 0.3 µM; on Cqui\Orco+Cqui\Or21 [2] (100 nM 3MI), 2.3 ± 0.2 µM; at Cqui\Orco+Cqui\Or21 [2] (1 µM 3MI), 1.9 ± 0.1 µM. Besides, the “Mechanism of inhibition of odorant activation” value at Cqui\Orco+Cqui\Or21 [2] is “non-competitive mechanism”.
Turning to `O=C(NCc1ccccc1)c1cccs1` [OX3b, N-benzyl-2-thiophenecarboxamide], the “Antagonist activity compared with the parent analog or OX1a (second screen)” value at Cqui\Orco+Cqui\Or21 [1] was “well tolerated”. For the same compound, at Cqui\Orco+Cqui\Or21 [1] (setting [3]), the “nH (apparent Hill coefficient of concentration-inhibition curve)” value is 1.1 ± 0.1 and the IC50 amounted to 5.1 ± 0.5 µM.
As to `CCc1ccccc1NC(=O)C=Cc1cccs1` [OX4, N-(2-ethylphenyl)-3-(2-thienyl)-2-propenamide], the “Antagonist activity compared with the parent analog or OX1a (second screen)” value at Cqui\Orco+Cqui\Or21 [1] is reported as “well tolerated”. Further, the “Mechanism of inhibition of Orco agonist” value on Cqui\Orco+Cqui\Or21 [1] was “competitive mechanism”. For the same compound, the “nH (apparent Hill coefficient of concentration-inhibition curve)” value on Cqui\Orco+Cqui\Or21 [1] (setting [3]) worked out at 0.9 ± 0.1. The IC50 at Cqui\Orco+Cqui\Or21 [1] (setting [3]) was 2.1 ± 0.3 µM; on Cqui\Orco+Cqui\Or21 [1] (activated by 10 µM OLC12), 8.8 ± 1.2 µM; on Cqui\Orco+Cqui\Or21 [1] (activated by 30 µM OLC12), 73 ± 5 µM; at Cqui\Orco+Cqui\Or21 [2] (10 nM 3MI) it was 3.4 ± 0.6 µM; on Cqui\Orco+Cqui\Or21 [2] (100 nM 3MI) it was 2.7 ± 0.4 µM; at Cqui\Orco+Cqui\Or21 [2] (1 µM 3MI) it was 2.5 ± 0.3 µM. The “Mechanism of inhibition of odorant activation” value at Cqui\Orco+Cqui\Or21 [2] was “non-competitive mechanism”.
